Tests used:
Type in all cases: in vivo, mice
[1] = tested on: mouse model of MI by LAD ligation; experiment: Heart section scar assessment (Masson-Trichrome) after MI
Protocol: (§1) Myocardial infarction in adult mice was performed as follows: mice were sedated with isoflurane (Abbott Laboratories) and following tracheal intubation, were artificially ventilated. Lateral thoracotomy at the third intercostal space was performed by blunt dissection of the intercostal muscles following skin incision. Following ligation of the left anterior descending coronary artery, 2 mg/animal/day of
(§2) GA (batch #164F0105; 24992916) or PBS were injected according to the experimental protocol (described in the Results). Following treatment, thoracic wall incisions were sutured with 6.0 non-absorbable silk sutures, and the skin wound closed using a skin adhesive. Mice were then warmed for several minutes until recovery.
Mouse heart tissues were fixed in 4% paraformaldehyde (PFA) and sectioned. For analysis of cardiac regeneration, following myocardial infarction procedure, paraffin sections were cut through the entire ventricle from apex to base into serial sections with intervals of 0.3 mm. Paraffin sections were cut frontally to include base to apex in each section. […] Scar size was quantified in the section containing the papillary muscle region using ImageJ software based on Masson's trichrome staining. Scar size was calculated as scar size relative to total section size.

infarcted hearts [2] = experiment: Multiplex cytokine ELISA of infarcted hearts
Protocol: Myocardial infarction in adult mice was performed as follows: mice were sedated with isoflurane (Abbott Laboratories) and following tracheal intubation, were artificially ventilated. Lateral thoracotomy at the third intercostal space was performed by blunt dissection of the intercostal muscles following skin incision. Following ligation of the left anterior descending coronary artery, 2 mg/animal/day of GA (batch #164F0105; 24992916) or PBS were injected according to the experimental protocol (described in the Results). Following treatment, thoracic wall incisions were sutured with 6.0 non-absorbable silk sutures, and the skin wound closed using a skin adhesive. Mice were then warmed for several minutes until recovery. For native protein extraction, hearts were minced using a mortar and pestle under liquid nitrogen, and the resulting powder was further homogenized using rotor—stator homogenizer with a native extraction buffer (0.5% triton in PBS with protease inhibitor cocktail). Resulting extracts were equilibrated for protein concentration, and subjected to mouse cytokine 16-plex ELISA (#110949MS, Quansys Biosciences, USA) according to manufacturer instructions. To broaden the understanding of the molecular effectors influenced by GA treatment, the cytokine milieu of the GA treated infarcted hearts was analyzed. For that, infarcted hearts were harvested at 24 h, 96 h and 14 days post MI. Native protein lysates were prepared and subjected to multiplex cytokine ELISA. At 24 hr post MI, both IL-6 and IL-10 levels were increased (FIG. 6A). […] Importantly, the levels of IL-6 as well as those of other pro-inflammatory cytokines in GA treated hearts were reduced 14 days post MI (FIG. 6C). These findings might underscore the importance of regulating a transient expression of pro-inflammatory cytokines occurring in a pro-regenerative scenario, similar to what was detected in the GA treated hearts. Another cytokine that was elevated after GA treatment was IL-4 (FIG. 6B). Both IL-10 and IL-4 are considered as anti-inflammatory cytokines that induce Th-2 differentiation, a cell population previously shown to be affected by GA (40-42). […] This chemokine was previously shown to induce IL-6 expression and to have beneficial effect on cardiac remodeling post MI^29. […] Taken together, the differential expression of cytokines in the GA treated infarcted heart might reveal the molecular mechanism that allows GA to modulate the immune response, supporting cardiac regeneration post MI.

infarcted hearts [3] = experiment: FACS analysis of neutrophils and macrophages in infarcted hearts
Protocol: Myocardial infarction in adult mice was performed as follows: mice were sedated with isoflurane (Abbott Laboratories) and following tracheal intubation, were artificially ventilated. Lateral thoracotomy at the third intercostal space was performed by blunt dissection of the intercostal muscles following skin incision. Following ligation of the left anterior descending coronary artery, 2 mg/animal/day of GA (batch #164F0105; 24992916) or PBS were injected according to the experimental protocol (described in the Results). Following treatment, thoracic wall incisions were sutured with 6.0 non-absorbable silk sutures, and the skin wound closed using a skin adhesive. Mice were then warmed for several minutes until recovery. Single cell suspensions of hearts harvested at different time point post MI were generated immediately before analysis by flow cytometry, as previously described^21. Briefly, single hearts were minced and digested in collagenase II/Dispase solution in PBS with 1 mM CaCl2 (2 mg/ml collagenase II, 1.2 U/ml Dispase) for 3 rounds of 15 minutes at 37° C., followed by mechanical separation by pippetation. Digested samples were passed through a 40-μm filter, washed, and suspended in FACS buffer (PBS 0.5% BSA, 2 mM EDTA) for staining. Samples were stained with antibodies from Miltenyi biotec:CD45-Viogreen, CD11b-PE, Ly6G-Vioblue, Ly6C-FITC, F4/80-APC, CCR2-APC-Vio770, MHCII-PE-Vio770. 7-AAD was used as a viability marker. Staining and sample analysis were all performed by standard procedure on a LSR-II FACS machine. GA has an established influence on the immune response, especially the T-helper 2 (Th2) lymphocyte population^22-24. To investigate the molecular mechanisms of GA effects, the present inventors sought out to characterize the immune response of infarcted hearts after GA treatment. First, examining the changes in relevant immune populations. For that, infarcted hearts were analyzed by FACS using markers for neutrophils and macrophages. To follow the dynamics of the immune response after MI, injured hearts at 24 hr, 96 hr and 14 days post MI were harvested. […] The effect of GA diminishes after 96 hr, with the expected reduction in neutrophils. […] This trend was recently shown to promote cardiac regeneration^25, and therefore might explain GA regenerative effect.

Stat3 = experiment: Western-blot analysis of pStat3 in hearts post MI; details: 4 days after injury (FIG. 7)
Protocol: as §1, §2
Western blotting was performed with the SDS-PAGE Electrophoresis System. Sample extracts were prepared and transferred to PVDF membranes. The following primary antibodies were used: anti-Gapdh (Sigma, PLA0125, 1:3000), anti-pStat3 (1:1000) Horseradish peroxidase anti-mouse, anti-rabbit or anti-goat (Sigma-Aldrich, 1:2000) were used as a secondary antibody.

[4] = tested on: mouse model of MI by LAD ligation; experiment: Echocardiography of heart function after myocardial infarction (LAD ligation)
Protocol: as §1, §2
Heart function was evaluated by transthoracic echocardiography performed on sedated mice (isoflurane, Abbott Laboratories) using a Vevo 3100 VisualSonics device.
Mice were divided to the following experimental groups: […]
4. Long GA treatment—performing MI followed by GA (2 mg/animal/day) given i.p. from day 0 up to day 14 or until first animal dies. N=5.
Echo measurements were performed at baseline (day 0), day 2, day 14 and day 35 post MI. Histology analysis was performed post mortem.
Short GA treatment—performing MI followed by GA (2 mg/animal/day) administered i.p. from day 0 up to day 14. N=10. […]
In the clinic, MI patients currently reach medical care in a matter of several hours. To find out the relevance and efficacy of delayed administration of GA, the present inventors created MI by LAD ligation and treated animals at the day of injury, 24 or 48 hours post MI.

With glatiramer acetate [GA] the “cardiac scarring (Masson-Trichrome stained area relative to total area)” value ([1]; 35 days after MI, larger group, vs PBS (FIG. 2C)) was “improved significantly”, the “scar area of the 3 representative treated mice” value ([1]; 35 d post MI, Masson-Trichrome, vs PBS (FIG. 3A)) was “smaller scar area” and the IL-6 level (infarcted hearts [2]; 24 hr post MI (FIG. 6A)) was “increased”. The IL-10 level (infarcted hearts [2]; 24 hr post MI (FIG. 6A)) was “increased”, the “levels of Monocyte Chemoattractant Protein-1 (MCP-1)” value (infarcted hearts [2]; 96 hr post MI (FIG. 6B)) was “significant enhancement” and the IL-6 level (infarcted hearts [2]; 14 days post MI (FIG. 6C)) was “reduced”. For the same substance, the “levels of other pro-inflammatory cytokines” value (infarcted hearts [2]; 14 days post MI (FIG. 6C)) was “reduced”, the IL-4 level (infarcted hearts [2]; FIG. 6B) was “elevated” and the “fraction of neutrophils in the infarcted hearts” value (infarcted hearts [3]; 24 h post MI, vs PBS (FIGS. 5A, B)) was “decreased”. The “macrophage fraction of immune cells” value (infarcted hearts [3]; 24 hr post MI, vs PBS (FIGS. 5C, D)) was “increase”, the “effect on macrophage fraction” value (infarcted hearts [3]; after 96 hr post MI) was “diminished” and the effect on neutrophils (infarcted hearts [3]; after 96 hr post MI) was “diminishes”. For the same substance, the “levels of phosphorylated Stat3 (pStat3)” value (Stat3) was “increased levels”, the “levels of phosphorylated Stat3 (pStat3)” value (Stat3; listed as Cop) was “upregulation” and the “fractional shortening (FS), reduction from baseline” value ([4]; 35 d after MI, GA i.p. 14 d vs PBS (FIG. 1C)) was “smaller reduction”. For the same substance, the “cardiac function (EF and FS)” value ([4]; 35 days after MI, larger group, all animals treated by the protocol, vs PBS (FIGS. 2A, B)) was “improved significantly”, the “EF of the 3 representative treated mice” value ([4]; 35 d post MI, vs PBS (FIG. 3B)) was “improved EF” and the “Ejection Fraction (EF)” value ([4]; 35 d post injury, GA 2 mg/animal/day i.p. day 0 to 14, vs PBS (FIG. 1A)) was “clear beneficial effect”. The “cardiac function (EF, FS), treatment delayed 24 hours” value ([4]; treatment started 24 hours post MI, similar levels to treatment at the day of injury (FIGS. 4A-B)) was “improved cardiac function” and the “cardiac function (EF, FS), treatment delayed 48 hours” value ([4]; treatment started 48 hours post MI, similar levels to treatment at the day of injury (FIGS. 4A-B)) was “improved cardiac function”.

Reference: patent US20200397853A1, “TREATMENT OF A HEART DISEASE” (Yeda Research and Development Co. Ltd., priority 2018, published 2020)
